Laboratory results reported in patent US20150011508A1, “COMPOUNDS AND COMPOSITIONS AS C-KIT KINASE INHIBITORS” (priority 2011, published 2015).

Each molecule was assayed against T1, c-kit (Homo sapiens, UniProt P10721) (assay: Mo7e cell proliferation assay (SCF dependent proliferation)). Conditions: Table 1; human Mo7e cells stimulated with human recombinant SCF, 48 h, CellTiter Glo; 1% FBS (footnote).
T1 construct: human Mo7e cells which endogenously express c-kit; endogenous in cells; host or cells: human Mo7e cells (SCF-dependent promegakaryocytic leukemia line)
Type: cell-based
Experimental: Compounds of Formula (I) and Formula (II) provided herein were assayed to measure their capacity to inhibit c-kit and PDGFR kinases using the appropriate assay described below: c-Kit inhibition was evaluated using the Mo7e cell proliferation assay, and PDGFR inhibition was evaluated using the Rat A10 cell proliferation assay and the Human TGHA-VSMC cell proliferation assay.
The compounds of Table 1 and Table 2 were tested for inhibition of SCF dependent proliferation using human Mo7e cells which endogenously express c-kit in a 384 well format. […] After 48 hours of incubation at 37° C., cell viability was measured by adding 25 uL of CellTiter Glo (Promega) to the cells and the luminescence was measured by a CLIPR CCD camera (Molecular Devices).
The IC50 value is given as that concentration of the test compound in question that provoke a response halfway between the baseline and maximum responses.

T1 sequence (P10721 26-976): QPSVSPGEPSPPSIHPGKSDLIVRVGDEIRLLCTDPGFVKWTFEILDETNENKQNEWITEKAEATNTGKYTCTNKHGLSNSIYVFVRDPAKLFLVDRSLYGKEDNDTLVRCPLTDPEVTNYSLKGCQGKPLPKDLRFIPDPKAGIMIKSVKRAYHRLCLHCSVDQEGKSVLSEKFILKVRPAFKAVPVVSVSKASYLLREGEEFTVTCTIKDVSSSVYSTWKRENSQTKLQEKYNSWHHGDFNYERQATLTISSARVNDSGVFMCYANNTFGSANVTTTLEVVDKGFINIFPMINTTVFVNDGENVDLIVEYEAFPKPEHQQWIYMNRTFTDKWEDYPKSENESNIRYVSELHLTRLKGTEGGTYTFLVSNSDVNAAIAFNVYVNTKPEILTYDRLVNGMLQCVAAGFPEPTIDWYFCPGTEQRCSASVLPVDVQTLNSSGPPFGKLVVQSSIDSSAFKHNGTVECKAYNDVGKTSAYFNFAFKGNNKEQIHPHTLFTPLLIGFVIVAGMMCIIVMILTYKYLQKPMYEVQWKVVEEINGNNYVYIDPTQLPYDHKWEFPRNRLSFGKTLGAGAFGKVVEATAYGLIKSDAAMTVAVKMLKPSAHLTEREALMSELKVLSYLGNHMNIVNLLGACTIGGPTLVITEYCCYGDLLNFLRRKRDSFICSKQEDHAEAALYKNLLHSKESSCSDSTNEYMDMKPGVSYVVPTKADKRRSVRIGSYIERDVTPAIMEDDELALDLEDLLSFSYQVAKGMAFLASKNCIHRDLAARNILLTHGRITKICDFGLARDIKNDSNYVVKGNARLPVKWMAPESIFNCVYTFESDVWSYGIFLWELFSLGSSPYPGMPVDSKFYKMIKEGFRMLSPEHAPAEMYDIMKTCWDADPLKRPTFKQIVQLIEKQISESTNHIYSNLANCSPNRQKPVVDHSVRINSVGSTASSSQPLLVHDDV

Row | Compound | IC50
1 | Cc1ccn2c(C(=O)Nc3cc(-c4noc(CC[C@](C)(O)C(F)(F)F)n4)ccc3C)cnc2c1 (single isomer, unassigned) [F75] | 64 nM
2 | Cc1ccn2c(C(=O)Nc3cc(-c4noc(CC[C@@](C)(O)C(F)(F)F)n4)ccc3C)cnc2c1 (single isomer, unassigned) [F76] | 49 nM
3 | COP(=O)(OC)OC(C)(CCc1nc(-c2ccc(C)c(NC(=O)c3cnc4cc(C)ccn34)c2)no1)C(F)(F)F (single isomer, unassigned) [F267] | 56 nM
4 | COP(=O)(OC)OC(C)(CCc1nc(-c2ccc(C)c(NC(=O)c3cnc4cc(C)ccn34)c2)no1)C(F)(F)F (single isomer, unassigned) [F269] | 50 nM
5 | Cc1ccn2c(C(=O)Nc3cc(-c4noc(CCC(C)(OP(=O)(O)O)C(F)(F)F)n4)ccc3C)cnc2c1 (stereo in doubt) [F270, (R)-1,1,1-trifluoro-2-methyl-4-(3-(4-methyl-3-(7-methylimidazo[1,2-a]pyridine-3-carboxamido)phenyl)-1,2,4-oxadiazol-5-yl)butan-2-yl dihydrogen phosphate] | 25 nM
6 | Cc1ccc(-c2noc(CCC#N)n2)cc1NC(=O)c1cnc2ccccn12 [F1] | 78 nM
7 | Cc1ccc(-c2noc(CCNC(=O)OC(C)(C)C)n2)cc1NC(=O)c1cnc2ccccn12 [F2] | 63 nM
8 | COCCCc1nc(-c2ccc(C)c(NC(=O)c3cnc4ccccn34)c2)no1 [F3] | 44 nM
9 | CCN(CC)C(=O)CCc1nc(-c2ccc(C)c(NC(=O)c3cnc4ccccn34)c2)no1 [F4] | 67 nM
10 | CC(=O)CCc1nc(-c2ccc(C)c(NC(=O)c3cnc4ccccn34)c2)no1 [F5] | 32 nM
11 | Cc1ccc(-c2noc(CNC(=O)OC(C)(C)C)n2)cc1NC(=O)c1cnc2ccccn12 [F6] | 8 nM
12 | CCOC(=O)Cc1nc(-c2ccc(C)c(NC(=O)c3cnc4ccccn34)c2)no1 [F7] | 87 nM
13 | Cc1ccc(-c2noc(CCC(C)(C)O)n2)cc1NC(=O)c1cnc2ccccn12 [F8, N-(5-(5-(3-hydroxy-3-methylbutyl)-1,2,4-oxadiazol-3-yl)-2-methylphenyl)imidazo[1,2-a]pyridine-3-carboxamide] | 63 nM
14 | Cc1ccc(-c2noc(CCC(C)O)n2)cc1NC(=O)c1cnc2ccccn12 (stereo not shown) [F9, N-(5-(5-(3-hydroxybutyl)-1,2,4-oxadiazol-3-yl)-2-methylphenyl)imidazo[1,2-a]pyridine-3-carboxamide] | 87 nM
15 | CCOCCc1nc(-c2ccc(C)c(NC(=O)c3cnc4ccccn34)c2)no1 [F10] | 42 nM
16 | Cc1nc(-c2ccc(C)c(NC(=O)c3cnc4ccccn34)c2)no1 [F11] | 86 nM
17 | CCOCc1nc(-c2ccc(C)c(NC(=O)c3cnc4ccccn34)c2)no1 [F12] | 49 nM
18 | Cc1ccc(-c2noc([C@H](C)NC(=O)OC(C)(C)C)n2)cc1NC(=O)c1cnc2ccccn12 [F13] | 93 nM
19 | CO[C@H](C)c1nc(-c2ccc(C)c(NC(=O)c3cnc4ccccn34)c2)no1 [F14] | 99 nM
20 | Cc1ccc(-c2noc(CC(C)(O)C(F)(F)F)n2)cc1NC(=O)c1cnc2ccccn12 (stereo not shown) [F15] | 82 nM

Row | Compound | IC50
21 | Cc1ccc(-c2noc(CC(O)(C(F)(F)F)C(F)(F)F)n2)cc1NC(=O)c1cnc2ccccn12 [F16] | 22 nM
22 | Cc1ccc(-c2noc(C(CO)(CO)NS(C)(=O)=O)n2)cc1NC(=O)c1cnc2ccccn12 [F17, N-(5-(5-(1,3-dihydroxy-2-(methylsulfonamido)propan-2-yl)-1,2,4-oxadiazol-3-yl)-2-methylphenyl)imidazo[1,2-a]pyridine-3-carboxamide] | 67 nM
23 | Cc1ccc(-c2noc([C@@H](C)NS(C)(=O)=O)n2)cc1NC(=O)c1cnc2ccccn12 [F18] | 98 nM
24 | Cc1ccc(-c2noc(CN(C)C(=O)OC(C)(C)C)n2)cc1NC(=O)c1cnc2ccccn12 [F19, tert-butyl (3-(3-(imidazo[1,2-a]pyridine-3-carboxamido)-4-methylphenyl)-1,2,4-oxadiazol-5-yl)methyl(methyl)carbamate] | 57 nM
25 | CCS(=O)(=O)NCc1nc(-c2ccc(C)c(NC(=O)c3cnc4ccccn34)c2)no1 [F20] | 61 nM
26 | CCN(Cc1nc(-c2ccc(C)c(NC(=O)c3cnc4ccccn34)c2)no1)C(=O)OC(C)(C)C [F21] | 55 nM
27 | CCN(Cc1nc(-c2ccc(C)c(NC(=O)c3cnc4ccccn34)c2)no1)S(C)(=O)=O [F22] | 89 nM
28 | CCN(Cc1nc(-c2ccc(C)c(NC(=O)c3cnc4ccccn34)c2)no1)C(=O)OC [F23] | 59 nM
29 | Cc1ccc(-c2noc(CNC(=O)C(F)(F)F)n2)cc1NC(=O)c1cnc2ccccn12 [F24, N-(2-methyl-5-(5-((2,2,2-trifluoroacetamido)methyl)-1,2,4-oxadiazol-3-yl)phenyl)imidazo[1,2-a]pyridine-3-carboxamide] | 56 nM
30 | Cc1ccc(-c2noc(CNS(=O)(=O)C(C)C)n2)cc1NC(=O)c1cnc2ccccn12 [F25] | 79 nM
31 | COCCOCc1nc(-c2ccc(C)c(NC(=O)c3cnc4ccccn34)c2)no1 [F26] | 59 nM
32 | Cc1ccc(-c2noc(CC(=O)OC(C)(C)C)n2)cc1NC(=O)c1cnc2ccccn12 [F27, tert-butyl 2-(3-(3-(imidazo[1,2-a]pyridine-3-carboxamido)-4-methylphenyl)-1,2,4-oxadiazol-5-yl)acetate] | 22 nM
33 | Cc1ccc(-c2noc(CCOCC(F)(F)F)n2)cc1NC(=O)c1cnc2ccccn12 [F28] | 7 nM
34 | CCOC(=O)NCc1nc(-c2ccc(C)c(NC(=O)c3cnc4ccccn34)c2)no1 [F29] | 80 nM
35 | Cc1ccc(-c2noc(CNC(=O)OC(C)C)n2)cc1NC(=O)c1cnc2ccccn12 [F30] | 61 nM
36 | Cc1ccc(-c2noc(C[C@@H](O)C(F)(F)F)n2)cc1NC(=O)c1cnc2ccccn12 [F31] | 58 nM
37 | CCOCCOCc1nc(-c2ccc(C)c(NC(=O)c3cnc4ccccn34)c2)no1 [F32] | 72 nM
38 | Cc1ccc(-c2noc(COCCOC(C)C)n2)cc1NC(=O)c1cnc2ccccn12 [F33, N-(5-(5-((2-isopropoxyethoxy)methyl)-1,2,4-oxadiazol-3-yl)-2-methylphenyl)imidazo[1,2-a]pyridine-3-carboxamide] | 81 nM
39 | Cc1ccc(-c2noc(COCCOC(C)(C)C)n2)cc1NC(=O)c1cnc2ccccn12 [F34] | 93 nM
40 | Cc1ccc(-c2noc(CNC(=O)CC(F)(F)F)n2)cc1NC(=O)c1cnc2ccccn12 [F35] | 43 nM

Row | Compound | IC50
41 | Cc1ccc(-c2noc(CCC(C)(C)O)n2)cc1NC(=O)c1cnc2ccc(F)cn12 [F36, 6-fluoro-N-(5-(5-(3-hydroxy-3-methylbutyl)-1,2,4-oxadiazol-3-yl)-2-methylphenyl)imidazo[1,2-a]pyridine-3-carboxamide] | 87 nM
42 | COCCOCc1nc(-c2ccc(C)c(NC(=O)c3cnc4ccc(F)cn34)c2)no1 [F37] | 92 nM
43 | CCOC(=O)NCc1nc(-c2ccc(C)c(NC(=O)c3cnc4ccc(F)cn34)c2)no1 [F38] | 47 nM
44 | Cc1ccc(-c2noc(COCC(F)(F)F)n2)cc1NC(=O)c1cnc2ccccn12 [F39] | 8 nM
45 | Cc1ccc(-c2noc(CNC(=O)OCC(F)F)n2)cc1NC(=O)c1cnc2ccccn12 [F40, 2,2-difluoroethyl ((3-(3-(imidazo[1,2-a]pyridine-3-carboxamido)-4-methylphenyl)-1,2,4-oxadiazol-5-yl)methyl)carbamate] | 71 nM
46 | COC(=O)NCc1nc(-c2ccc(C)c(NC(=O)c3cnc4cc(-c5cnn(CCN6CCOCC6)c5)ccn34)c2)no1 [F41] | 23 nM
47 | Cc1ccc(-c2noc(CCC(C)(C)O)n2)cc1NC(=O)c1cnc2cc(-c3ccn(C)n3)ccn12 [F42] | 9 nM
48 | Cc1nc(-c2ccc(C)c(NC(=O)c3cnc4ccc(-c5cn[nH]c5)cn34)c2)no1 [F43] | 46 nM
49 | Cc1nc(-c2ccc(C)c(NC(=O)c3cnc4ccc(-c5cnn(C)c5)cn34)c2)no1 [F44] | 25 nM
50 | Cc1nc(-c2ccc(C)c(NC(=O)c3cnc4ccc(-c5cnn(CC(C)(C)O)c5)cn34)c2)no1 [F45] | 24 nM
51 | Cc1ccc(Nc2noc(C(C)(C)CO)n2)cc1NC(=O)c1cnc2ccccn12 [F46, N-(5-(5-(1-hydroxy-2-methylpropan-2-yl)-1,2,4-oxadiazol-3-ylamino)-2-methylphenyl)imidazo[1,2-a]pyridine-3-carboxamide] | 13 nM
52 | Cc1nc(-c2ccc(C)c(NC(=O)c3cnc4ccc(-c5cscn5)cn34)c2)no1 [F47] | 50 nM
53 | Cc1nc(-c2ccc(C)c(NC(=O)c3cnc4ccc(-c5sc(C)nc5C)cn34)c2)no1 [F48] | 7 nM
54 | Cc1nc(-c2ccc(C)c(NC(=O)c3cnc4ccc(-c5c(C)noc5C)cn34)c2)no1 [F49] | 53 nM
55 | Cc1ccn2c(C(=O)Nc3cc(-c4noc(CCC(C)(C)O)n4)ccc3C)cnc2c1 [F50, N-(5-(5-(3-hydroxy-3-methylbutyl)-1,2,4-oxadiazol-3-yl)-2-methylphenyl)-7-methylimidazo[1,2-a]pyridine-3-carboxamide] | 52 nM
56 | Cc1nc(-c2ccc(C)c(NC(=O)c3cnc4ccc(-c5cnn(CCN6CCOCC6)c5)cn34)c2)no1 [F51] | 95 nM
57 | [2H]c1c([2H])c([2H])n2c(C(=O)Nc3cc(-c4noc(CC=C(C)C)n4)ccc3C)cnc2c1[2H] [F52] | 16 nM
58 | [2H]c1c([2H])c([2H])n2c(C(=O)Nc3cc(-c4noc(COCCOC)n4)ccc3C)cnc2c1[2H] [F53, N-(5-(5-((2-methoxyethoxy)methyl)-1,2,4-oxadiazol-3-yl)-2-methylphenyl)5,6,7,8,deutero-imidazo[1,2-a]pyridine-3-carboxamide] | 61 nM
